Structures can show the parent of a compound that is named as a salt.
tested on: T1, primary mouse cortical neurons; test: cells; set-up: Protection from NMDA-induced (30 uM, 10 min) neuronal death; Hoechst nuclear morphology by automated microscopy; settings: Cortical neurone, 20 h, read-out: % inhibition, inhibition of NMDA-induced cell death (protection score), 30 min pre-treatment
T1 construct: primary cortical neurons, DIV 10
Procedure: On DIV 10, compounds were applied to the cells reaching an end concentration of 10 μM. Cells were incubated for 30 min at 37 °C, 5% CO2 before adding NMDA (30 μM). Cells were incubated for another 10 min in the incubator, then washed twice with defined minimal medium containing 10 μM of the respective compound and incubated for an additional 20 h before readout. Untreated (no NMDA) and NMDA-only stimulated wells were treated with 0.1% DMSO. […] After 15 min of incubation at room temperature, cells were washed twice with phosphate buffered saline. […] Dead neurons were identified by amorphous or shrunken nuclei using CellProfiler and CellProfiler Analyst software. For all cell death analyses the experimental unit (N) is defined as an independent experiment using an independent neuronal preparation. For each independent experiment, data from 3 replicate wells (i.e., from 36 images), representing an average of 3000 cells was analyzed per condition. The survival rate S was calculated by dividing the number of living cells by the total number of cells. The survival rate was then used to calculate the protection score according to Scompound−Svehicle/Suntreated−Svehicle×100=%protection , where ‘compound’ refers to compound + NMDA treatment, ‘vehicle’ refers to vehicle + NMDA treatment, and ‘untreated’ refers to DMSO control. […] As a proof of principle, we next used our assay to screen two commercially available drug libraries. In these screens, primary cortical cells were incubated with test compounds at 10 μM concentration for 30 min before addition of 30 μM NMDA. After 10 min NMDA treatment, cells were washed with fresh medium and kept in the presence of test compounds for 20 h until assessment of cell viability. […] This library covers structurally diverse drugs from several fields such as oncology, cardiology, immunology, and neurology/psychiatry.

First: C[C@H]1[C@H](OC(=O)CCC(=O)O)O[C@@H]2O[C@@]3(C)CC[C@H]4[C@H](C)CC[C@@H]1[C@@]24OO3 [Artesunate]
Second: C[C@H](CCC(=O)O)[C@H]1CC[C@H]2[C@@H]3[C@H](O)C[C@@H]4C[C@H](O)CC[C@]4(C)[C@H]3CC[C@]12C [Chenodeoxycholic acid]
The inhibition at 10 µM of the first is lower: -3.35% for the first, -2.92% for the second.

First: C[C@H]1[C@H](C)CC[C@]2(C(=O)O)CC[C@]3(C)C(=CC[C@@H]4[C@@]5(C)C[C@@H](O)[C@H](O)[C@@](C)(CO)[C@@H]5CC[C@]43C)[C@H]12 [Asiatic acid]
Second: CC(C)(O)[C@H]1CC[C@@](C)([C@H]2[C@@H](O)C[C@@]3(C)[C@@H]4C[C@H](O[C@@H]5O[C@H](CO)[C@@H](O)[C@H](O)[C@H]5O)[C@H]5C(C)(C)[C@@H](O[C@@H]6OC[C@@H](O)[C@H](O)[C@H]6O)CC[C@@]56C[C@@]46CC[C@]23C)O1 [Astragaloside A]
The inhibition at 10 µM of the first is lower: -2.44% for the first, 0.89% for the second.

Compared with `COC(=O)N[C@H](C(=O)N[C@@H](Cc1ccccc1)[C@@H](O)CN(Cc1ccc(-c2ccccn2)cc1)NC(=O)[C@@H](NC(=O)OC)C(C)(C)C)C(C)(C)C` [Atazanavir sulfate], `CC(C)C[C@H](NC(=O)[C@H](Cc1ccccc1)NC(=O)c1cnccn1)B(O)O` [Bortezomib (Velcade)] is lower in inhibition at 10 µM: 2.12% for the first, -4.79% for the second.

Compared with `CN1[C@@H]2CC[C@H]1CC(OC(=O)C(CO)c1ccccc1)C2` (stereo partly drawn) [Atropine], `CCCC[N+]1(C)[C@@H]2CC(OC(=O)[C@H](CO)c3ccccc3)C[C@H]1[C@@H]1O[C@@H]12` (stereo partly drawn) [Butylscopolamine bromide (Scopolamine butylbromide)] is lower in inhibition at 10 µM: 9.73% for the first, 5% for the second.

Compared with `CN1CCCC(n2nc(Cc3ccc(Cl)cc3)c3ccccc3c2=O)CC1` (stereo not drawn) [Azelastine hydrochloride (Astelin)], `O=C(O)COCCN1CCN(C(c2ccccc2)c2ccc(Cl)cc2)CC1` (stereo not drawn) [Cetirizine Dihydrochloride] is lower in inhibition at 10 µM: -2.32% for the first, -10.5% for the second.

Compared with `C[C@H]1[C@H](NC(=O)/C(=N\OC(C)(C)C(=O)O)c2csc(N)n2)C(=O)N1S(=O)(=O)O` [Aztreonam (Azactam, Cayston)], `C=CC1=C(C(=O)O)N2C(=O)[C@@H](NC(=O)/C(=N\O)c3csc(N)n3)[C@H]2SC1` [Cefdinir (Omnicef)] is higher in inhibition at 10 µM: -1.22% for the first, 44.5% for the second.

Going from `Cn1c(CNc2ccc(C(=N)N)cc2)nc2cc(C(=O)N(CCC(=O)O)c3ccccn3)ccc21` [BIBR 953 (Dabigatran etexilate, Pradaxa)] to `CCCCCCOC(=O)NC(=N)c1ccc(NCc2nc3cc(C(=O)N(CCC(=O)OCC)c4ccccn4)ccc3n2C)cc1` [BIBR-1048 (Dabigatran)], the inhibition at 10 µM rises from -1.4% to 0.466%.

First: O=c1cc(-c2ccccc2)oc2cc(O)c(O)c(O)c12 [Baicalein]
Second: O=c1cc(-c2ccccc2)oc2cc(O)cc(O)c12 [Chrysin]
The inhibition at 10 µM of the first is lower: -2.71% for the first, -0.0506% for the second.

First: O=C(O)[C@H]1O[C@@H](Oc2cc3oc(-c4ccccc4)cc(=O)c3c(O)c2O)[C@H](O)[C@@H](O)[C@@H]1O [Baicalin]
Second: COc1c(O)cc2c(c1O)[C@@H]1O[C@H](CO)[C@@H](O)[C@H](O)[C@H]1OC2=O [Bergenin (Cuscutin)]
The inhibition at 10 µM of the first is lower: -3.47% for the first, 1.66% for the second.

Compared with `CCOC(=O)[C@H](CCc1ccccc1)N[C@H]1CCc2ccccc2N(CC(=O)O)C1=O` [Benazepril hydrochloride], `NC(=O)N1c2ccccc2C=Cc2ccccc21` [Carbamazepine (Carbatrol)] is higher in inhibition at 10 µM: -11.1% for the first, 2.33% for the second.

Going from `Cn1c(CCCC(=O)O)nc2cc(N(CCCl)CCCl)ccc21` [Bendamustine HCL] to `CN(C)CCCN1c2ccccc2Sc2ccc(Cl)cc21` [Chlorpromazine (Sonazine)], the inhibition at 10 µM falls from 9.61% to -4.78%.

Going from `NC(CO)C(=O)NNCc1ccc(O)c(O)c1O` (stereo not drawn) [Benserazide] to `C[C@@](Cc1ccc(O)c(O)c1)(NN)C(=O)O` [Carbidopa], the inhibition at 10 µM falls from 6.78% to -2.32%.

Going from `COc1ccc2cc3[n+](cc2c1OC)CCc1cc2c(cc1-3)OCO2` [Berberine Hydrochloride] to `COc1ccc(-c2coc3cc(O)cc(O)c3c2=O)cc1` [Biochanin A (4-Methylgenistein)], the inhibition at 10 µM rises from -2.08% to 3%.

Compared with `CCC(=O)OCC(=O)[C@@]1(OC(=O)CC)[C@@H](C)C[C@H]2[C@@H]3CCC4=CC(=O)C=C[C@]4(C)[C@@]3(F)[C@@H](O)C[C@@]21C` [Betamethasone dipropionate], `CCCCC(=O)O[C@]1(C(=O)CO)[C@@H](C)C[C@H]2[C@@H]3CCC4=CC(=O)C=C[C@]4(C)[C@@]3(F)[C@@H](O)C[C@@]21C` [Betamethasone valerate (Betnovate)] is higher in inhibition at 10 µM: 6.47% for the first, 6.58% for the second.

Going from `C[C@H]1C[C@H]2[C@@H]3CCC4=CC(=O)C=C[C@]4(C)[C@H]3C(=O)C[C@]2(C)[C@@]1(O)C(=O)CO` [Betapar (Meprednisone)] to `CCCC1O[C@@H]2C[C@H]3[C@@H]4CCC5=CC(=O)C=C[C@]5(C)[C@H]4[C@@H](O)C[C@]3(C)[C@]2(C(=O)CO)O1` (stereo partly drawn) [Budesonide], the inhibition at 10 µM falls from 11.6% to -9.49%.

First: CC(C[N+](C)(C)C)OC(N)=O (stereo not drawn) [Bethanechol chloride]
Second: COc1cc(CNC(=O)CCCC/C=C/C(C)C)ccc1O [Capsaicin]
The inhibition at 10 µM of the first is higher: -1.35% for the first, -2.28% for the second.

Compared with `C[C@@H](O)[C@H]1C(=O)N2C(C(=O)[O-])=C(SC3Cn4cnc[n+]4C3)[C@H](C)[C@H]12` (stereo partly drawn) [Biapenem], `CCCCCOC(=O)Nc1nc(=O)n([C@@H]2O[C@H](C)[C@@H](O)[C@H]2O)cc1F` [Capecitabine (Xeloda)] is higher in inhibition at 10 µM: 3.3% for the first, 3.74% for the second.

Going from `CC(O)(CS(=O)(=O)c1ccc(F)cc1)C(=O)Nc1ccc(C#N)c(C(F)(F)F)c1` (stereo not drawn) [Bicalutamide (Casodex)] to `Cc1ccc(-c2cc(C(F)(F)F)nn2-c2ccc(S(N)(=O)=O)cc2)cc1` [Celecoxib], the inhibition at 10 µM falls from -3.38% to -7.05%.

Going from `CCNC(=O)CCC/C=C\C[C@@H]1[C@@H](/C=C/[C@@H](O)CCc2ccccc2)[C@H](O)C[C@@H]1O` [Bimatoprost] to `CCCCNc1cc(C(=O)O)cc(S(N)(=O)=O)c1Oc1ccccc1` [Bumetanide], the inhibition at 10 µM falls from 9.97% to -2.16%.

First: CC(C)NCC(O)COc1ccc(COCCOC(C)C)cc1 (stereo not drawn) [Bisoprolol]
Second: O=C(N[C@H](CO)[C@H](O)c1ccc([N+](=O)[O-])cc1)C(Cl)Cl [Chloramphenicol (Chloromycetin)]
The inhibition at 10 µM of the first is higher: 10% for the first, 0.272% for the second.

First: Cc1c(N)nc([C@H](CC(N)=O)NC[C@H](N)C(N)=O)nc1C(=O)N[C@H](C(=O)N[C@H](C)[C@@H](O)[C@H](C)C(=O)N[C@H](C(=O)NCCc1nc(-c2nc(C(=O)NCCC[S+](C)C)cs2)cs1)[C@@H](C)O)[C@@H](O[C@@H]1O[C@@H](CO)[C@@H](O)[C@H](O)[C@@H]1O[C@H]1O[C@H](CO)[C@@H](O)[C@H](OC(N)=O)[C@@H]1O)c1cnc[nH]1 [Bleomycin sulfate]
Second: CO/N=C(\C(=O)N[C@@H]1C(=O)N2C(C(=O)OCOC(=O)C(C)(C)C)=C(/C=C\c3scnc3C)CS[C@H]12)c1csc(N)n1 [Cefditoren pivoxil]
The inhibition at 10 µM of the first is lower: -2.58% for the first, 8.16% for the second.

First: CCCCN1CCCCC1C(=O)Nc1c(C)cccc1C (stereo not drawn) [Bupivacaine hydrochloride (Marcain)]
Second: O=C1CCc2cc(OCCCCc3nnnn3C3CCCCC3)ccc2N1 [Cilostazol]
The inhibition at 10 µM of the first is higher: -1.92% for the first, -13.8% for the second.

First: CS(=O)(=O)OCCCCOS(C)(=O)=O [Busulfan (Myleran, Busulfex)]
Second: COCCOC(=O)C1=C(C)NC(C)=C(C(=O)OC/C=C/c2ccccc2)C1c1cccc([N+](=O)[O-])c1 (stereo not drawn) [Cilnidipine]
The inhibition at 10 µM of the first is higher: 15.7% for the first, -16% for the second.

Compared with `O=C(O)/C=C/c1ccc(O)c(O)c1` [Caffeic acid], `O=C(/C=C/c1ccc(O)c(O)c1)O[C@@H]1C[C@](O)(C(=O)O)C[C@@H](O)[C@H]1O` [Chlorogenic acid] is higher in inhibition at 10 µM: -2.37% for the first, -2.16% for the second.

Compared with `CC[C@@]1(O)C(=O)OCc2c1cc1n(c2=O)Cc2cc3ccccc3nc2-1` [Camptothecin], `Cc1cc(O)c2c(c1)C(=O)c1cccc(O)c1C2=O` [Chrysophanic acid (Chrysophanol)] is higher in inhibition at 10 µM: -13.4% for the first, 8.58% for the second.

First: CCOc1nc2cccc(C(=O)OC(C)OC(=O)OC3CCCCC3)c2n1Cc1ccc(-c2ccccc2-c2nn[nH]n2)cc1 (stereo not drawn) [Candesartan cilexetil (Atacand)]
Second: C=C[C@H]1CN2CC[C@H]1C[C@H]2[C@H](O)c1ccnc2ccccc12 [Cinchonidine]
The inhibition at 10 µM of the first is higher: 7.42% for the first, -3.04% for the second.

Going from `NS(=O)(=O)c1cc2c(cc1Cl)N=CNS2(=O)=O` [Chlorothiazide] to `Oc1c(Cl)cc(Cl)c2cccnc12` [Chloroxine], the inhibition at 10 µM falls from 31.3% to -4.86%.

First: CN(C)CC/C=C1/c2ccccc2Sc2ccc(Cl)cc21 [Chlorprothixene]
Second: Nc1nc(Cl)nc2c1ncn2[C@H]1C[C@H](O)[C@@H](CO)O1 [Cladribine]
The inhibition at 10 µM of the first is lower: -2.97% for the first, -1.65% for the second.

Molecule `CN/C(=N\CCSCc1nc[nH]c1C)NC#N` [Cimetidine (Tagamet)] has an inhibition at 10 µM of -0.847%.
